Experiments:
HCT116 cells = experiment: Soft agar anchorage-independent growth assay, HCT116 cells; assay type: cell-based; conditions: read-out: GI50, anchorage-independent growth of HCT116 cells, Control, without SIRT2 overexpression
[1] = tested on: HCT116 cells with SIRT2 overexpression; conditions: read-out: GI50, anchorage-independent growth of HCT116 cells, SIRT2 expression, soft agar
SIRT6 = SIRT6 (Homo sapiens, UniProt Q8N6T7); experiment: HPLC-based SIRT6 demyristoylation assay; assay type: biochemical; conditions: with pre-incubation
HME-1 cells = experiment: Cytotoxicity; assay type: cell-based; conditions: read-out: GI50 in HME-1 cells; normal mammary epithelial cell line
MCF10A cells = experiment: Cytotoxicity; assay type: cell-based; conditions: read-out: GI50 in MCF10A cells; normal mammary epithelial cell line
SIRT3 = molecular target: T1, SIRT3 (Homo sapiens, UniProt Q9NTG7); experiment: HPLC-based SIRT3 deacetylation assay; assay type: biochemical; conditions: with pre-incubation
T1 sequence (Q9NTG7 1-399): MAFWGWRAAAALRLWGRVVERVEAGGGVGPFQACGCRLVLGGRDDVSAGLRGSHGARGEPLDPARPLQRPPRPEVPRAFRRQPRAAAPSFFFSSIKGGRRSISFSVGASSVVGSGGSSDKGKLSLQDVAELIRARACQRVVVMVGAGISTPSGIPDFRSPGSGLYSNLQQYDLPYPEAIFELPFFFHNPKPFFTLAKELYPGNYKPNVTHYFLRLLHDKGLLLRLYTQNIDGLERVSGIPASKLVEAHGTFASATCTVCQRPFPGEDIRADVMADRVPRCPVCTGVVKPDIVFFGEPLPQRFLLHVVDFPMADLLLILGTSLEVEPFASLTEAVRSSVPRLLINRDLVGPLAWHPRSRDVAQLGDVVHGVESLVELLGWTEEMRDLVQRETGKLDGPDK

SIRT6, sequence (Q8N6T7 whole entry, species assumed): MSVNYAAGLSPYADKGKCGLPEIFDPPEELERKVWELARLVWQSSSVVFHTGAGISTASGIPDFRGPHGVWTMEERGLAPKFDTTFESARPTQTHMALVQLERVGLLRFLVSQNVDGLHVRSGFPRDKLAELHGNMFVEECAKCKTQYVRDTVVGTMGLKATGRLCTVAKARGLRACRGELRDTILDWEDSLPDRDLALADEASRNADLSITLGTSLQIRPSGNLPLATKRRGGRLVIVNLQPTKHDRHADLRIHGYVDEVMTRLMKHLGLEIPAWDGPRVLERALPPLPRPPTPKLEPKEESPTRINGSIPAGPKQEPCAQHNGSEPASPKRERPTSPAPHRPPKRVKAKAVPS

SMILES: N#C/C(=C\c1ccc(-c2cc(Cl)ccc2Cl)o1)C(=O)Nc1cccc2ncccc12 [AGK2]
- GI50 (HCT116 cells): 24.1 µM
- GI50 [1]: 27.6 µM

SMILES: Cc1cc(C)nc(SCC(=O)Nc2ncc(Cc3cccc4ccccc34)s2)n1 [SirReal2]
- GI50 (HCT116 cells): 55.8 µM
- GI50 [1]: 58.1 µM

SMILES: CCCCCCCCCCCCCC(=S)NCCCCC(NC(=O)OCc1ccccc1)C(=O)Nc1ccccc1 (centres unmarked) [TM]
- Inhibition of SIRT6 (SIRT6): essentially did not inhibit
- GI50 (HME-1 cells): > 50 µM
- GI50 (MCF10A cells): > 50 µM
- GI50 (HCT116 cells): 13.5 µM
- Inhibition of SIRT3 (SIRT3): essentially did not inhibit
- GI50 [1]: 24.2 µM

SMILES: CN(C)CCCCC(=O)Nc1ccc(NC(=S)NC(=O)c2ccc(C(C)(C)C)cc2)cc1 [Tenovin-6]
- GI50 (HCT116 cells): 2.1 µM

— publication PMC6402572 (ChemMedChem, 2018)
